Converted amounts (≈) assume the structure as drawn.
Legend:
Format in all cases: functional
[1] = tested on: P388; test: In vivo antitumor activity against mouse P388 cells at 6 mg/kg relative to control
[2] = tested on: KB; test: Cytotoxicity against human KB cells; conditions: read-out: ED50 (the source's name)
[3] = tested on: P388; test: In vivo antitumor activity against mouse P388 cells at 1.5 mg/kg relative to control
[4] = tested on: P388; test: In vivo antitumor activity against mouse P388 cells at 4.4 mg/kg relative to control
[5] = tested on: P388; test: In vivo antitumor activity against mouse P388 cells at 3.5 mg/kg relative to control
[6] = tested on: P388; test: In vivo antitumor activity against mouse P388 cells at 13 mg/kg relative to control

## C=C1C[C@@]23C[C@H](O)[C@]4(O)[C@@]5(C)C[C@H](O)C[C@@]46[C@@H]2[C@H](O)[C@H](OC(=O)/C(C)=C/C)[C@@H]1[C@H]3[C@H]6N(C)C5
[1]
  T/C: 127%
[2]
  EC50: 1 µg/mL (≈ 2.18 µM)

## C=C1C[C@]23[C@H]4[C@H]1[C@@H](OC(=O)/C(C)=C/C)[C@@H](OC(=O)c1ccccc1)[C@H]2[C@@]12C[C@@H](O)C[C@@](C)(CN(C)[C@H]41)[C@@]2(O)[C@@H](O)[C@@H]3O
[3]
  T/C: 125%
[2]
  EC50: 0.001 µg/mL (≈ 0.00173 µM)

## C=C1C[C@]23[C@H]4[C@H]1[C@@H](OC(=O)/C(C)=C/C)[C@@H](OC(=O)/C(C)=C/C)[C@H]2[C@@]12C[C@@H](O)C[C@@](C)(CN(C)[C@H]41)[C@@]2(O)[C@@H](O)[C@@H]3O
[4]
  T/C: 140%
[2]
  EC50: 0.001 µg/mL (≈ 0.00179 µM)

## C=C1C[C@]23[C@H]4[C@H]1[C@@H](OC(=O)/C(C)=C/C)[C@@H](OC(=O)/C(C)=C/CO)[C@H]2[C@@]12C[C@@H](O)C[C@@](C)(CN(C)[C@H]41)[C@@]2(O)[C@@H](O)[C@@H]3O
[5]
  T/C: 120%
[2]
  EC50: 0.05 µg/mL (≈ 0.0872 µM)

## C=C1C[C@@]23C[C@H](O)[C@]4(O)[C@@]5(C)C[C@H](O)C[C@@]46[C@@H]2[C@H](OC(=O)/C(C)=C/C)[C@H](OC(=O)/C(C)=C/C)[C@@H]1[C@H]3[C@H]6N(C)C5 [ANOPTERINE]
[6]
  T/C: 122%
[2]
  EC50: 0.05 µg/mL (≈ 0.0923 µM)
